According to US11053238B2, “Benzimidazole derivatives, preparation methods and uses thereof” (BETTA PHARMACEUTICALS CO., LTD, priority 2016, dated 2021):
Like-named read-outs stand apart in the source and are kept apart here.

Tests used:
[1] = test system: Human colorectal cancer cells (colo-205); test: MTS cell viability assay (cell proliferation); assay type: cell-based; settings: colo-205 cells, 7 days of exposure
Method: Effects of test compounds on in vitro proliferation were measured by MTS cell viability assay.
Human colorectal cancer cells (colo-205) is expanded in culture (colo-205 is grown in DMEM media with 12% FBS, 1% P/S, and 1% L-glutamine).
MTS Cell Viability Assay:
1. Seed cells at density of 4×10^3 cells per well of 96-wells plates, grow for 24 h;
2. Add varying concentrations of test compounds to the cells;
3. Incubate for 7 days of exposure;
4. Prepare reagents following the instructions in the Cell Proliferation Assay kit (Promega);
5. Change to serum-free medium with a final volume of 100 μl/well. Prepare a set of wells with medium only for background subtraction;
6. Add 20 μl MTS solution containing PMS to each well (final concentration of MTS will be 0.33 mg/mL);
7. Incubate 1 to 4 h at 37° C. in a humidified, 5% CO2 atmosphere;
8. Record absorbance at 490 nm using VICTOR™ X5 plate reader (PerkinElmer).
All experimental points were set up in three wells and all experiments were repeated at least three times.

[2] = BALB/c mice, 200 mg/kg (qd); for observation (mortality) / Body weight (weight loss) / weight loss (in words): oral gavage; for Body weight (weight loss): vs vehicle control; for mice death in each group (6 mice): after treatment for 2 weeks
CDK2/CycA2 = CDK2/CycA2 (Homo sapiens (Human), UniProt P24941); test: CDK kinase assay (Caliper, FAM-labeled peptide)
CDK9/cyclin T1 = CDK9/cyclin T1 (Homo sapiens (Human), UniProt P50750); test: 33P-ATP radiometric CDK kinase inhibitory activity and selectivity test; assay type: biochemical
Description: (§1) The mechanism of this method is shown in formula (II).
(§2) Data was processed with Prism4 Software (GraphPad), and the curve fitting formula was:
(§3) Y=Bottom+(Top−Bottom)/(1+10^((Log IC50−X)*HillSlope)); wherein, Y is percent inhibition (%); X is logarithm of concentration of the inhibitor.

CDK2/cyclin E = CDK2/cyclin E (Homo sapiens (Human), UniProt P24941); test: as above; assay type: biochemical
Description: as §1, §2, §3

JeKo-1 cells = test: Tumor regression effect on JeKo-1 xenograft animal model; assay type: in vivo, NOD/SCID mice; settings: 10-100 mg/kg orally once a day, 19 days
Method: JeKo-1 cells were cultured in RPMI 1640 medium containing 20% fetal bovine serum. Exponentially growing JeKo-1 cells were collected and resuspended in PBS to a suitable concentration for NOD/SCID mice subcutaneous tumor inoculation. Seventy female mice were inoculated subcutaneously on the right with 5×10^6 JeKo-1 cells, resuspended in PBS and matrigel (1:1). When the average tumor volume reached 134 mm^3, the mice were randomly grouped according to the size of the tumor and were administrated. Forty-eight mice were divided into the experimental group, and the remaining twenty-two mice were not used for experiment. Tumor volume is calculated as: long diameter×short diameter^2/2. […] Efficacy is evaluated according to the relative tumor growth inhibition rate of TGI.
The higher the TGI (%) value illustrates the better the potency; and vice versa.

CDK4/CycD3 = CDK4/CycD3 (Homo sapiens (Human), UniProt P11802); test: CDK kinase assay (Caliper, FAM-labeled peptide)
CDK6/cycD3 = CDK6/cycD3 (Homo sapiens (Human), UniProt Q00534); test: CDK kinase assay (Caliper, FAM-labeled peptide); settings: read-out: IC50(CDK6); CDK6/cycD3, ATP 800 μM
[3] = 33P-ATP, P81 membrane, read-out: CDK kinase inhibitory activity IC50, CDK9/cyclin T1
[4] = text summary for CDK1/2/7/9, read-out: IC50 for inhibiting CDK9
[5] = 33P-ATP, P81 membrane, read-out: CDK kinase inhibitory activity IC50, CDK2/cyclin E
[6] = text summary for CDK1/2/7/9, read-out: IC50 for inhibiting CDK2
[7] = IC50(CDK4), head-to-head comparison of substituent site, class symbols

Chain of CDK9/cyclin T1 (P50750 whole entry, species assumed): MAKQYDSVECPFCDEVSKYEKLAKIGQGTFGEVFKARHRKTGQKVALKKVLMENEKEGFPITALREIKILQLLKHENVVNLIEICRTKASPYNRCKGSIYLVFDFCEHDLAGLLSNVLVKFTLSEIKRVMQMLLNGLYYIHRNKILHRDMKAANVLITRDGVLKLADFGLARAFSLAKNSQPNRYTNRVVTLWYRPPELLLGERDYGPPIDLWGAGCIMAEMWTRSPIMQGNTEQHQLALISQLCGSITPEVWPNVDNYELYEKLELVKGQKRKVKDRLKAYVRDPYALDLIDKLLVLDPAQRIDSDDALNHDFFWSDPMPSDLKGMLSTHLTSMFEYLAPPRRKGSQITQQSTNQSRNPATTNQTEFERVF
Chain of CDK9/cyclin T1 (O60563 whole entry partner, species assumed): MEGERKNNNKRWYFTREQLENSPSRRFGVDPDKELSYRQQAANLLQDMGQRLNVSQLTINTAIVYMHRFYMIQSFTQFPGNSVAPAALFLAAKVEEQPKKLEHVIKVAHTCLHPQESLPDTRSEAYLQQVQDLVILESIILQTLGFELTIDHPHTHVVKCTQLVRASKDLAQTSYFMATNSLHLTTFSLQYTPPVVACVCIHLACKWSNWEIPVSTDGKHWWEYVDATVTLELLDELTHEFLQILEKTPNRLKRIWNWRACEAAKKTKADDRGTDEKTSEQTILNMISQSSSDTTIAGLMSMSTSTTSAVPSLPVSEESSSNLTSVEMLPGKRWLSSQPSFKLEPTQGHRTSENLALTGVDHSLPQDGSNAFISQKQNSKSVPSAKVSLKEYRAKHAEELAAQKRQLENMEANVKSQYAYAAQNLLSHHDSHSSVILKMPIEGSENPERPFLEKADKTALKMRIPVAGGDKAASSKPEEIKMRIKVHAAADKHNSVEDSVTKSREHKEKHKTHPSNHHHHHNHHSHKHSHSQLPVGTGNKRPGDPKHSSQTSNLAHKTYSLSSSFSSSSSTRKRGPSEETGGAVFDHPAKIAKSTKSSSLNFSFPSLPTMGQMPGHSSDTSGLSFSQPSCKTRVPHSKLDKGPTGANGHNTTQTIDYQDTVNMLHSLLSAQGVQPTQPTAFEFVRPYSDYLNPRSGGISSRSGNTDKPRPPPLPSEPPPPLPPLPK
Chain of CDK4/CycD3 (P11802 whole entry, species assumed): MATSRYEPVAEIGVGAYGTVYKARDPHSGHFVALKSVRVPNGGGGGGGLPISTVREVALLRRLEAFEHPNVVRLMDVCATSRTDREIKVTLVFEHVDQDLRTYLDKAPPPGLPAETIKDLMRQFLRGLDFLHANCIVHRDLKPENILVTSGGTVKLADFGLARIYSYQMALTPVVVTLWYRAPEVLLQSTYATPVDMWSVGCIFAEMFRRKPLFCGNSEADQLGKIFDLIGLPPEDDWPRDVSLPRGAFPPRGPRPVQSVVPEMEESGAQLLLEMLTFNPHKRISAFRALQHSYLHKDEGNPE
Chain of CDK4/CycD3 (P30281 whole entry partner, species assumed): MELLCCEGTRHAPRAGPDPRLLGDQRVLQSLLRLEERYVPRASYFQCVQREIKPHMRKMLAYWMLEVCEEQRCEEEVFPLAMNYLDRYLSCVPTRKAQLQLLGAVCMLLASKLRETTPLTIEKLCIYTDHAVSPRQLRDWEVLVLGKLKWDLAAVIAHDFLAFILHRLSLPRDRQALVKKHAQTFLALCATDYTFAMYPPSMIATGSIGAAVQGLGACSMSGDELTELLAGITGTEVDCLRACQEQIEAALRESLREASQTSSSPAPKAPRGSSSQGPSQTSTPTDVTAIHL
Chain of CDK6/cycD3 (Q00534 whole entry, species assumed): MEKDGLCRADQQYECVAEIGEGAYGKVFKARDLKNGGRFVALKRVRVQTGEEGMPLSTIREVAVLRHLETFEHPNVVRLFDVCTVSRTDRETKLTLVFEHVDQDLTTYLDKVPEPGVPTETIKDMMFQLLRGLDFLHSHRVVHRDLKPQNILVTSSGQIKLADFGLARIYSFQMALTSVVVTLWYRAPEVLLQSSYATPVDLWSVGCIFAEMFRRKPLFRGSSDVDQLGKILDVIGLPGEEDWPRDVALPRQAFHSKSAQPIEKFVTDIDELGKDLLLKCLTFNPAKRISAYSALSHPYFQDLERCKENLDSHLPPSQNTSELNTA
Chain of CDK6/cycD3 (P30281 whole entry partner, species assumed): as the sequence (P30281 whole entry partner, species assumed) above

CN1CCN(c2ccc(Nc3ncc(F)c(-c4cc(F)c5nc6n(c5c4)CCCC6)n3)nc2)CC1 [Com. EX. 2, 5-fluoro-4-(6-fluoro-1,2,3,4-tetrahydrobenzo[4,5]imidazo[1,2-a]pyridin-8-yl)-N-(5-(4-methylpiperazin-1-yl)pyridin-2-yl)pyrimidin-2-amine]
IC50 [1]: 8900 nM

CCN1CCN(Cc2ccc(Nc3ncc(F)c(-c4cc(F)c5nc6n(c5c4)C(C)COC6)n3)nc2)CC1 (single isomer, unassigned) [Compound 16b, N-(5-((4-ethylpiperazin-1-yl)methyl)pyridin-2-yl)-5-fluoro-4-(9-fluoro-4-methyl-3,4-dihydro-1H-benzo[4,5]imidazo[2,1-c][1,4]oxazin-7-yl)pyrimidin-2-amine]
observation (mortality) [2]: −
Body weight (weight loss) [2]: * (weight loss less than 5%)
IC50 (CDK2/CycA2): > 300 nM

CC1(C)CCCc2nc3c(F)cc(-c4nc(Nc5ccc(N6CCN(C7COC7)CC6)cn5)ncc4F)cc3n21 [Com. EX. 5, 5-fluoro-4-(6-fluoro-1,1-dimethyl-1,2,3,4-tetrahydrobenzo[4,5]imidazo[1,2-a]pyridin-8-yl)-N-(5-(4-(oxetan-3-yl)piperazin-1-yl)pyridin-2-yl)pyrimidin-2-amine, reference compound]
IC50 (CDK2/CycA2): 40 nM

CCN1CCN(Cc2ccc(Nc3ncc(F)c(-c4cc(F)c5nc6n(c5c4)C(C)CCC6)n3)nc2)CC1 (single isomer, unassigned) [Compound 2b, N-(5-((4-ethylpiperazin-1-yl)methyl)pyridin-2-yl)-5-fluoro-4-(6-fluoro-1-methyl-1,2,3,4-tetrahydrobenzo[4,5]imidazo[1,2-a]pyridin-8-yl)pyrimidin-2-amine]
IC50 (CDK9/cyclin T1; [3]): 649 nM
IC50 (CDK9/cyclin T1; [4]): > 400 nM
IC50 (CDK2/cyclin E; [5]): 441 nM
IC50 (CDK2/cyclin E; [6]): > 400 nM
observation (mortality) [2]: −
Body weight (weight loss) [2]: * (weight loss less than 5%)
anti-tumor activity (in words) (JeKo-1 cells): excellent anti-tumor activity

CC1CCCc2nc3c(F)cc(-c4ccnc(Nc5ccc(N6CCN(C)CC6)cn5)n4)cc3n21 (stereo not drawn) [Compound 1, 4-(6-fluoro-1-methyl-1,2,3,4-tetrahydrobenzo[4,5]imidazo[1,2-a]pyridin-8-yl)-N-(5-(4-methylpiperazin-1-yl)pyridin-2-yl)pyrimidin-2-amine]
IC50 [1]: 78 nM
IC50 (CDK2/CycA2): > 300 nM

CCN1CCN(Cc2ccc(Nc3ncc(F)c(-c4cc(F)c5nc(C)n(C(C)C)c5c4)n3)nc2)CC1 [LY2835219, Abemaciclib]
IC50 [1]: 136 nM
observation (mortality) [2]: −

CCN1CCN(Cc2ccc(Nc3ncc(F)c(-c4cc(F)c5nc6n(c5c4)C(C)CCC6)n3)nc2)CC1 (stereo not drawn) [Compound 2, N-(5-((4-ethylpiperazin-1-yl)methyl)pyridin-2-yl)-5-fluoro-4-(6-fluoro-1-methyl-1,2,3,4-tetrahydrobenzo[4,5]imidazo[1,2-a]pyridin-8-yl)pyrimidin-2-amine]
IC50 [1]: 53 nM
IC50 (CDK9/cyclin T1; [3]): 572 nM
IC50 (CDK9/cyclin T1; [4]): > 400 nM
IC50 (CDK2/cyclin E; [5]): 474 nM
IC50 (CDK2/cyclin E; [6]): > 400 nM
weight loss (in words) [2]: almost little weight loss
IC50 (CDK2/CycA2): > 300 nM

CCN1CCN(Cc2ccc(Nc3ncc(F)c(-c4cc(F)c5nc6n(c5c4)C(C)COC6)n3)nc2)CC1 (stereo not drawn) [Compound 16, N-(5-((4-ethylpiperazin-1-yl)methyl)pyridin-2-yl)-5-fluoro-4-(9-fluoro-4-methyl-3,4-dihydro-1H-benzo[4,5]imidazo[2,1-c][1,4]oxazin-7-yl)pyrimidin-2-amine]
weight loss (in words) [2]: almost little weight loss

CC1(C)CCCc2nc3c(F)cc(-c4nc(Nc5ccc(CN6CCNCC6)cn5)ncc4F)cc3n21 [Com. EX. 6, 5-fluoro-4-(6-fluoro-1,1-dimethyl-1,2,3,4-tetrahydrobenzo[4,5]imidazo[1,2-a]pyridin-8-yl)-N-(5-(piperazin-1-ylmethyl)pyridin-2-yl)pyri midin-2-amine, reference compound]
IC50 (CDK2/CycA2): 40 nM

CC[C@@H]1COCc2nc3c(F)cc(-c4nc(Nc5ccc(CN6CCN(CC)CC6)cn5)ncc4F)cc3n21 [Com. EX. 4b, (R)-4-(4-ethyl-9-fluoro-3,4-dihydro-1H-benzo[4,5]imidazo[2,1-c][1, 4]oxazin-7-yl)-N-(5-((4-ethylpiperazin-l-yl)methyl)pyridin-2-yl)-5-f luoropyimidin-2-amine]
mice death in each group (6 mice) [2]: 5
observation (mortality) [2]: +
weight loss (in words) [2]: much more weight loss
Body weight (weight loss) [2]: *** (weight loss more than 10% and less than 30%)

CCN1CCN(Cc2ccc(Nc3ncc(F)c(-c4cc(F)c5nc6n(c5c4)CC(C)CC6)n3)nc2)CC1 (stereo not drawn) [Com. EX. No. 8, N-(5-((4-ethylpiperazin-1-yl)methyl)pyridin-2-yl)-5-fluoro-4-(6-fluoro-2-methyl-1,2,3,4-tetrahydrobenzo[4,5]imidazo[1,2-a]pyridin-8-yl) pyrimidin-2-amine]
IC50 (CDK4/CycD3; [7]): 1000 to 2000 nM

CN1CCN(c2ccc(Nc3ncc(F)c(-c4cc(F)c5nc6n(c5c4)C4(CCC6)CC4)n3)nc2)CC1 [Com. EX. 1, 5-fluoro-4-(6-fluoro-3,4-dihydro-2 H-spiro[benzo[4,5]imidazo,[1,2-a]pyridine-1,1′-cyclopropan]-8-yl)-N-(5-(4-methylpiperazin-1-yl)pyridin-2-yl)pyrimidin-2-amine]
IC50 [1]: 6640 nM

CCN1CCN(Cc2ccc(Nc3ncc(F)c(-c4cc(F)c5nc6n(c5c4)C(C)CCC6)n3)nc2)CC1 (single isomer, unassigned) [Compound 2a, N-(5-((4-ethylpiperazin-1-yl)methyl)pyridin-2-yl)-5-fluoro-4-(6-fluoro-1-methyl-1,2,3,4-tetrahydrobenzo[4,5]imidazo[1,2-a]pyridin-8-yl)pyrimidin-2-amine]
IC50 (CDK9/cyclin T1; [3]): 779 nM
IC50 (CDK9/cyclin T1; [4]): > 400 nM
IC50 (CDK2/cyclin E; [5]): 596 nM
IC50 (CDK2/cyclin E; [6]): > 400 nM

CCN1CCN(Cc2ccc(Nc3ncc(F)c(-c4cc(F)c5nc6n(c5c4)[C@H](C(C)C)COC6)n3)nc2)CC1 [Com. EX. 3b, (R)-N-(5-((4-ethylpiperazin-1-yl)methyl)pyridin-2-yl)-5-fluoro-4-(9-fluoro-4-isopropyl-3,4-dihydro-1 H-benzo[4,5]imidazo[2,1-c][1,4]oxazin-7-yl)pyrimidin-2-amine]
mice death in each group (6 mice) [2]: 4
observation (mortality) [2]: +
weight loss (in words) [2]: much more weight loss
Body weight (weight loss) [2]: *** (weight loss more than 10% and less than 30%)

CC1CCCn2c1nc1c(F)cc(-c3ccnc(Nc4ccc(N5CCN(C)CC5)cn4)n3)cc12 (stereo not drawn) [Com. EX. No. 7, 4-(6-fluoro-4-methyl-1,2,3,4-tetra hydrobenzo[4,5]imidazo[1,2-a]pyridin-8-yl)-N-(5-(4-methylpiperazin-1-yl)pyridin-2-yl)pyrimidin-2-a mine]
IC50 (CDK4/CycD3): 57 nM
IC50 (CDK6/cycD3): 110 nM

CCN1CCN(Cc2ccc(Nc3ncc(F)c(-c4cc(F)c5nc6n(c5c4)CCCC6C)n3)nc2)CC1 (stereo not drawn) [Com. EX. No. 10, N-(5((4-ethylpiperazin-l-yl)methyl)pyridin-2-yl)-5-fluoro-4-(6-fluoro-4-methyl-1,2,3,4-tetrahydrobenzo[4,5]imidazo[1,2-a]pyridin-8-yl) pyrimidin-2-amine]
IC50 (CDK4/CycD3; [7]): 1000 to 2000 nM
